Results from patent US4038308A, “Prostaglandin derivatives” (American Home Products Corporation, priority 1976, dated 1977).

Assays:
[1] = test system: bronchoconstricting effects of a standard dose of acetylcholine; test: Bronchodilation upon aerosol inhalation in the guinea pig: inhibition of acetylcholine bronchoconstriction (method of Rosenthale et al.); type: in vivo; conditions: acetylcholine i.v. dose producing ca. 30% bronchoconstriction
Description: In using the compounds of the invention to produce bronchodilating effects in warm-blooded animals, they may be administered in a variety of dosage forms: oral, injectable, and aerosol inhalation. Aerosol inhalation is a preferred method because of its rapid onset of action, great potency, and specificity of action. The particular dosage to obtain the bronchodilating effect will vary with the particular compound employed, the particular animal involved, and the degree of bronchodilation desired. In the guinea pig, by aerosol inhalation, the dose to produce bronchodilation is from about 0.15 micrograms to about 25 micrograms, and preferably from about 0.15 to about 15 micrograms. The bronchodilation produced upon aerosol inhalation can be observed by the method of Rosenthale et al., J. Pharmacol. Exp. Ther., 178, 541 (1971). Using this procedure the following results were obtained:
*The dose (i.v.) of acetylcholine which produces a ca. 30%

[2] = Hypotensive effect (blood pressure change) in the anesthetized dog, intravenous route; type: in vivo; conditions: dose 100 μg/kg., average of two animals
Protocol: In the use of the compounds of the invention to produce hypotensive effects in warm-blooded animals, administration by the injectable route is preferred, preferably the intravenous route.
Thus in the anesthetized dog by the intravenous route the dose to produce hypotension is from about 1 μg/kg. to about 200 μg/kg. and preferably from about 10 μg/kg. to about 100 μg/kg. Using this procedure the following results were obtained.

Row | SMILES | Percent Inhibition of the bronchoconstricting effects of a standard dose of acetylcholine ([1]; dose 0.15 μg) [%] | Percent Inhibition of the bronchoconstricting effects of a standard dose of acetylcholine ([1]; dose 1.50 μg) [%] | Percent Inhibition of the bronchoconstricting effects of a standard dose of acetylcholine ([1]; dose 15 μg) [%] | Percent Inhibition of the bronchoconstricting effects of a standard dose of acetylcholine ([1]; dose .015 μg) [%] | Δ B.P. [2] [mm. mg]
1 | C#C[C@@H]1CC(=O)[C@H](CCCCCCC(=O)O)[C@H]1/C=C/[C@@H](O)CCCCC [3α-Ethynyl-2β-[(3S)-3-Hydroxy-Trans-1-Octenyl]-5-Oxo-1α-Cyclopentaneheptanoic Acid] | 52 | 58 | 76 | 28 | 
2 | C#CC1CC(=O)[C@H](C/C=C\CCCC(=O)O)[C@H]1/C=C/[C@H](O)CCCCC (stereo partly drawn) [7-([3RS]-3-Ethynyl-2β-[(3R)-3-Hydroxy-Trans-1-Octenyl]-5-Oxo-1β-Cyclopentyl)-Cis-5-Heptenoic Acid] |  | 43 | 68 |  | 
3 | C#CC1CC(=O)[C@H](C/C=C\CCCC(=O)O)[C@H]1/C=C/[C@@H](O)CCCCC (stereo partly drawn) [7-([3RS]-3-Ethynyl-2β-[(3S)-3-Hydroxy-Trans-1-Octenyl]-5-Oxo-1α-Cyclopentyl)-Cis-5-Heptenoic Acid] |  |  |  |  | -31
4 | C#CC1CC(=O)[C@H](C/C=C\CCCC(=O)O)[C@H]1/C=C/C(O)(C#C)CCCCC (stereo partly drawn) [7-[(3RS)-3-Ethynyl-2β-[(3RS)-3-Ethynyl-3-Hydroxy-Trans-1-Octenyl]-5-Oxo-1α-Cyclopentyl]-Cis-5-Heptenoic Acid] | 56 | 86 |  | 42 | -41
5 | C#CC1CC(=O)[C@H](CCCCCCC(=O)O)[C@H]1/C=C/C(C)(O)CCCCC (stereo partly drawn) [(3RS)-3-Ethynyl-2β[(3RS)-3-Hydroxy-3-Methyl-Trans-1-Octenyl]-5-Oxo-1α-cyclopentane-Heptanoic Acid] | 54 | 56 | 37 |  | -16
6 | C#CC1CC(=O)[C@H](CCCCCCC(=O)O)[C@H]1/C=C/C(=O)CCCCC (stereo partly drawn) [(3RS)-3-Ethynyl-5-Oxo-2β-(3-Oxo-Trans-1-Octenyl)-1α-Cyclopentaneheptanoic Acid] |  | 36 | 75 |  | 
